Like-named read-outs stand apart in the source and are kept apart here.
Key:
[1] = target: rat intestine derived lipase; experiment: Lipase inhibitory action test (Lipase kit S); assay type: biochemical; settings: 30° C., 10 minutes reaction
Procedure: In order to see the inhibitory action to lipase of the phenolic polymerizable compound, an inhibitory action test using rat intestine derived lipase was performed.
As lipase, one obtained by suspending 100 mg of rat derived intestine acetone powder (manufactured by Sigma-Aldrich Japan) in 1 ml of 100 mM citric acid buffer (pH 6.0), stirred at 4° C. for 1 hour, centrifuging the same (at 15000 rpm for 45 minutes at 4° C.), and then diluting the supernatant by 1500 times was used as a lipase solution.
As samples, p-coumaric acid, ferulic acid, and coffeic acid and the UHA6005, the UHA6006, the UHA7009, the UHA7010, the UHA7011, the UHA8015, and the UHA9020 which were already purified were used. With respect to the preparation of the samples, each compound was dissolved in DMSO, and then prepared in such a manner as to achieve 0.1 mM, 0.5 mM, 1 mM, 2 mM, and 4 mM.
For measuring the activity, a “Lipase kit S” (Trade name, manufactured by Dainippon Pharmaceutical Co., Ltd.) was used. First, in accordance with a preparation method described in the catalog of the Lipase kit S, a color developing liquid was prepared. Reaction liquids in which 70 μl of the color developing liquid, 2 μl of an esterase inhibitor, 10 μl of the lipase solution, and 10 μl of the samples (Final concentration: 10 μM, 50 μM, 100 μM, 200 μM, 400 μM, and 1000 μM) were mixed were prepared, preincubated at 30° C. for 5 minutes, and then 8 μl of a substrate solution described in the catalog was added. Then, a reaction was started. After reacting for 10 minutes, 150 μl of a reaction stop liquid prepared in accordance with the preparation method described in the catalog of the Lipase kit S was added to stop the reaction. The resultant substance was subjected to a measurement of absorbancy at a wavelength of 415 nm. A reaction liquid to which only DMSO as the solvent of the sample was added was used as a positive control and one to which 10 μl of 100 mM citric acid buffer (pH 6.0) was added instead of the lipase solution was used as a negative control. From the relationship between the lipase inhibition rate calculated based on the data obtained therefrom and the concentration of each compound, the concentration IC50 at which the lipase activity is inhibited by 50% was calculated.

[2] = tested on: HL-60 cells (human promyelocytic leukemia cells); experiment: Cancer cell growth suppressing action using HL-60 cells (MTT method, Cell counting kit-8); assay type: cell-based; settings: 24 hours, 6.3-100 μM, read-out: Cell growth suppressing ability to HL-60 (IC50)
Procedure: Next, in order to see the effect of the phenolic polymerizable compound to cancer cells, cancer cell growth suppressing action using HL-60 cells (human promyelocytic leukemia cells) was tested.
For culturing the HL-60 cells, an enriched culture medium “RPMI-1640” (manufactured by Sigma-Aldrich Japan) containing 4 mM glutamine (L-Glutamine, manufactured by Sigma-Aldrich Japan) and 10% FBS (Foetal Bovine Serum, manufactured by Biological Industries) was used. For the test, a 96-well plate for cell culture (manufactured by Corning Japan) was used, and the HL-60 cells whose number of cells was adjusted to be 5×10^5 cells/mL were seeded at 100 μL per well.
As samples, p-coumaric acid, ferulic acid, coffeic acid, and sinapic acid, and the UHA6005, the UHA6006, the UHA7004, the UHA7009, the UHA7010, the UHA7011, the UHA8015, the UHA9019, and the UHA9020 which were already purified were used. With respect to the preparation of the samples, each compound was dissolved in DMSO (Wako Pure Chemical Industries, Ltd.), and then adjusted in such a manner that the final concentration in the HL-60 cell culture solutions was 6.3 μM, 12.5 μM, 25 μM, 50 μM, and 100 μM. Then, the test was started.
The number of viable cells was quantified by an MTT method using a “Cell counting kit-8” (manufactured by DOJINDO LABORATORIES). 24 hours after starting the test, 10 μl of a Cell counting kit-8 solution was added to each well, and then sufficiently stirred. After a shading reaction for 1 hour, the absorbancy was measured at a measurement wavelength of 450 nm using a plate leader (Biorad Laboratories, Inc., “BIO-RAD Model 680”). Then, the cell viability was calculated based on the obtained data. The cell viability is a value obtained by setting the number of viable cells of the culture liquid to which only DMSO as a solvent was added to 100%, and then calculating the number of viable cells under the concentration of each compound as a relative value. From the relationship between the concentration of each compound and the cell viability, the concentration IC50 (50% inhibition concentration) at which the cell growth is suppressed by 50% was calculated.

[3] = tested on: SCC-4 cells (human oral cancer cells, ATCC); experiment: Cancer cell growth suppressing action using SCC-4 cells (MTT method, Cell counting kit-8); assay type: cell-based; settings: 6.3-100 μM, read-out: Cell growth suppressing ability (IC50)
Procedure: Next, in order to see the effect of the phenolic polymerizable compound to oral cancer cells, cancer cell growth suppressing action using SCC-4 cells (human oral cancer cells, ATCC) was tested.
For culturing the SCC-4 cells, a DMEM/F-12 (1:1) culture medium (manufactured by GIBCO) containing 400 ng/mL hydrocortisone (manufactured by Sigma-Aldrich Japan), 1% antibiotic-antimycotic (manufactured by GIBCO), and 10% FBS (Foetal Bovine Serum, manufactured by ATCC) was used. For the test, a collagen I coat 96 well plate for cell culture (manufactured by Japan BD) was used, and SCC-4 cells whose number of cells was adjusted to be 5×10^5 cells/mL were seeded at 100 μL per well. The cells were cultured under the conditions of 37° C. and 5% CO2 for 24 hours, and were used for the test in a confluent state of 80% or higher.
As samples, p-coumaric acid and coffeic acid and the UHA6005, the UHA7009, the UHA7010, and the UHA7011 which were already purified were used. With respect to the preparation of the samples, each compound was dissolved in DMSO, and then prepared in such a manner as to achieve 0.63 mM, 1.25 mM, 2.5 mM, 5 mM, and 10 mM. The samples were added in such a manner that the final concentration in the SCC-4 cell culture solution was 6.3 μM, 12.5 μM, 25 μM, 50 μM, and 100 μM. Then, the test was started. A sample to which an equivalent amount of only DMSO as the solvent was added was used as a negative control.
The number of viable cells was quantified by an MTT method using a “Cell counting kit-8” in the same manner as in Example 18, and the concentration IC50 at which the cell growth is suppressed by 50% was calculated.

[4] = Solubility (physicochemical properties); settings: for Solubility: DMSO: solvent DMSO; for Solubility: Chloroform: solvent chloroform; for Solubility: Ethanol: solvent ethanol; for Solubility: Ethyl acetate: solvent ethyl acetate; for Solubility: Methanol: solvent methanol; for Solubility: Water: solvent water

Row | SMILES | IC50 [1] [µM] | IC50 ([2]; Homo sapiens) [µM] | IC50 ([3]; Homo sapiens) [µM] | Solubility: DMSO [4] | Solubility: Chloroform [4] | Solubility: Ethanol [4] | Solubility: Ethyl acetate [4] | Solubility: Methanol [4] | Solubility: Water [4] | IC50 [2] [µM] | IC50 [3] [µM]
1 | CC(/C=C/c1ccc(O)cc1)c1ccc(O)cc1 (centres unmarked) [UHA7009] | 438 | 49.3 | 72.9 | Soluble | Soluble | Soluble | Soluble | Soluble | Poorly soluble |  | 
2 | CC(/C=C/c1ccc(O)c(C(C)c2ccc(O)cc2)c1)c1ccc(O)cc1 (centres unmarked) [UHA7011] | 197 | 35.4 | 40.8 | Soluble | Soluble | Soluble | Soluble | Soluble | Poorly soluble |  | 
3 | COc1cc(/C=C/C(=O)O)ccc1O [Ferulic acid, reference compound] | > 1000 | > 100 |  |  |  |  |  |  |  |  | 
4 | COc1cc(C(C)/C=C/c2ccc(O)cc2)ccc1O (single isomer, unassigned) [UHA8015] | 350 | 74.3 |  | Soluble | Soluble | Soluble | Soluble | Soluble | Non-soluble |  | 
5 | CC(/C=C/c1cc(O)c(O)cc1C(C)c1ccc(O)c(O)c1)c1ccc(O)c(O)c1 (centres unmarked) [UHA6006] | 188 | 42.4 |  | Soluble | Soluble | Soluble | Soluble | Soluble | Poorly soluble |  | 
6 | CC(/C=C/c1ccc(O)c(O)c1)c1ccc(O)c(O)c1 (centres unmarked) [UHA6005] | 253 | 43.7 | 69.7 | Soluble | Soluble | Soluble | Soluble | Soluble | Poorly soluble |  | 
7 | O=C(O)/C=C/c1ccc(O)cc1 [p-coumaric acid, reference compound] | > 1000 | > 100 | > 100 |  |  |  |  |  |  |  | 
8 | COc1cc(/C=C/C(C)c2cc(OC)c(O)c(OC)c2)cc(OC)c1O (centres unmarked) [UHA9019] |  | 66.2 |  | Soluble | Soluble | Soluble | Soluble | Soluble | Poor soluble |  | 
9 | COc1cc(/C=C/C(=O)O)cc(OC)c1O [Sinapic acid, reference compound] |  | > 100 |  |  |  |  |  |  |  |  | 
10 | O=C(O)/C=C/c1ccc(O)c(O)c1 [Coffeic acid, reference compound] | > 1000 |  |  |  |  |  |  |  |  | > 100 | > 100
11 | COc1cc(/C=C/C(C)c2ccc(O)c(OC)c2)ccc1O (centres unmarked) [UHA7004] |  | 17.6 |  | Soluble | Soluble | Soluble | Soluble | Soluble | Poorly soluble |  | 
12 | CC(CC(/C=C/c1ccc(O)cc1)c1ccc(O)cc1)c1ccc(O)cc1 (centres unmarked) [UHA7010] | 60.4 | 35.3 | 61.1 | Soluble | Soluble | Soluble | Soluble | Soluble | Poorly soluble |  | 
13 | COc1cc(/C=C/C(C)c2ccc(O)c(O)c2)ccc1O (centres unmarked) [UHA9020] | 118 | 38.5 |  | Soluble | Soluble | Soluble | Soluble | Soluble | Non-soluble |  | 

— patent publication US20130310611A1, “PROCESS FOR PRODUCTION OF PHENOLIC POLYMERIZABLE COMPOUND HAVING PHYSIOLOGICAL ACTIVITY” (UHA MIKAKUTO CO., LTD., priority 2010, published 2013)
